From patent US20070213291A1, “Therapeutically useful synthetic oligonucleotides” (priority 1999, published 2007)

Columns and labels:
[1] = tested on: Jurkat human leukemia T cells; experiment: Inhibition of Jurkat human leukemia T cell proliferation (MTT reduction); type: cell-based; conditions: 100 μg/ml sequence, 48 h, 2.5×10^5 cells/ml
Outline: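 Jurkat cells at 2.5×10^5 cells/ml exposed to 100 μg/ml of 2–45-base A/C/G/T sequences (0 μg/ml control) for 48 h, 37° C, 5% CO2. Viability by MTT reduction read at 570 nm.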

[2] = tested on: THP-1 human acute monocytic leukemia cells; experiment: Cytokine production by THP-1 cells (ELISA); type: cell-based; conditions: THP-1, 1×10^6 cells, 100 μg/ml, 48 h; for ↑ IL-12 (fold increase treated vs control cells): p70 complex and free p40
Outline: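 1×10^6 cells exposed to 100 μg/ml of each oligonucleotide sequence for 48 h at 37° C in 5% CO2, unless stated otherwise. Cytokines quantified in culture supernatant by ELISA, IL-12 assay detecting both p70 and free p40; values are fold increase over untreated control cells.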

IMC tumor = conditions: premixed with IMC cells and injected into CDF-1 mice; cited from earlier work
[3] = tested on: MCF-7 human breast cancer cells; experiment: Inhibition of MCF-7 cell proliferation (MTT); type: cell-based; conditions: 100 μg/ml, 48 h, 5×10^5 cells/ml
Outline: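 Cells at 2.5×10^5 cells/ml (GT 3- and 6-base series at 5×10^5 cells/ml) treated with 100 μg/ml of 2-45-base oligonucleotide sequences versus untreated control for 48 h at 37 °C, 5% CO2. Proliferation read by MTT reduction at 570 nm.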

[4] = tested on: LNCaP human prostate cancer cells; experiment: Inhibition of LNCaP cell proliferation (MTT); type: cell-based; conditions: 100 μg/ml, 48 h, 5×10^5 cells/ml
Procedure: (§1) Cells were seeded in 6 (1 ml/well), 24 (0.5 ml/well) or 96 (0.1 ml/well) well flat-bottom microplates and were maintained at 37° C. in a 5% CO2 atmosphere. Unless stated otherwise, 2.5×10^5 cells/ml were incubated with 0 μg/ml (control) and 100 μg/ml (treated) of 2 to 45 base sequences containing A, C, G and T for 48 h.
(§2) Cell proliferation was measured using dimethylthiazol-diphenyl-tetrazolium (MTT) reduction (Mosman et al. J. Immunol. Methods 65:55, 1983). MTT was measured at a wavelength of 570 nm using a multiplate spectrophotometer reader (ELX800, Bio-TEK Instruments Inc., Winooski, Vt.).
LNCaP prostate cancer cells are a TGF-beta 1 receptor negative, […], metastatic human solid tumor model. LNCaP cells (5×10^5 cells/ml) were incubated with 6 base GT sequences (Table 9).

[5] = tested on: EL-4 murine T lymphoma cells; experiment: Inhibition of EL-4 cell proliferation (MTT); type: cell-based; conditions: 100 μg/ml, 48 h
Procedure: as §1, §2
EL-4 murine lymphoma T cells are a suspension tumor model. EL-4 murine lymphoma T cells were incubated with 6, 18, 27 and 33 base GT sequences and with a 15 base ACG sequence (Table 18).

telomerase = biological target: T1, telomerase (Homo sapiens, UniProt O14746); experiment: PCR-telomeric repeat amplification protocol (TRAP) on Jurkat T cell extracts; type: biochemical; conditions: concentrations between 1 and 100 μg/ml, extracts from 2×10^5 Jurkat T cells
T1 construct: extracts from 2×10^5 Jurkat T cells were assayed using the PCR-telomeric repeat amplification protocol (TRAP); endogenous in cells; host or cells: Jurkat T cells (cell extract)
T1 sequence (O14746 whole entry): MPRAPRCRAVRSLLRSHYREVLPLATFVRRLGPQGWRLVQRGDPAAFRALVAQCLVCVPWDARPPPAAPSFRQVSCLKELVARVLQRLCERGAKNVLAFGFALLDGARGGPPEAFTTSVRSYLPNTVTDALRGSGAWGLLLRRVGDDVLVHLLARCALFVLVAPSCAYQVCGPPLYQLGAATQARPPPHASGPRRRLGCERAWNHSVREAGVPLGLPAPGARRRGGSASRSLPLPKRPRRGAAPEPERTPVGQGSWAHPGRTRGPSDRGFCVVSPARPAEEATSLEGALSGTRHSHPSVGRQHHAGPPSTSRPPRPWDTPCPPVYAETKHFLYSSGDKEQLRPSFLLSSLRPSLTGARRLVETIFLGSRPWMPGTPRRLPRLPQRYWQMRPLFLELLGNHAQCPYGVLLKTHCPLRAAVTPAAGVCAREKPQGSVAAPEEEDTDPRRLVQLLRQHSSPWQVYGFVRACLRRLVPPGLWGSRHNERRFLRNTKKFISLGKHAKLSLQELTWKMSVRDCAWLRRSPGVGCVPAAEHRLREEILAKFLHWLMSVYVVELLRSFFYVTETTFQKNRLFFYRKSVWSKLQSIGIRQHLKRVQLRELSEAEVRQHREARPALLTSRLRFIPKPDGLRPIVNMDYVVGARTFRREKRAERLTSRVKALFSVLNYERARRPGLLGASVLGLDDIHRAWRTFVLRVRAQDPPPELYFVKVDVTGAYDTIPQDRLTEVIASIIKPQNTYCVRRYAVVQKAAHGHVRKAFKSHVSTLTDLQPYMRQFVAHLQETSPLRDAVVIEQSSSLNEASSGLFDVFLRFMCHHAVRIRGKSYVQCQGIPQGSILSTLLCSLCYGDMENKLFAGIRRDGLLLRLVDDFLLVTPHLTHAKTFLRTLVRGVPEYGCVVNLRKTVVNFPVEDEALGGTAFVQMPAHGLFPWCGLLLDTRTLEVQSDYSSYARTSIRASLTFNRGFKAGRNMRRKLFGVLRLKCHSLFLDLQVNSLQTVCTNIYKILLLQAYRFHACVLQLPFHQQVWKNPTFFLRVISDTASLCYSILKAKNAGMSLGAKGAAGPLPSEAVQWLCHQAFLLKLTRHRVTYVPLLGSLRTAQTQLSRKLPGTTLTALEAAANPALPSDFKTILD
Procedure: To determine telomerase activity, extracts from 2×10^5 Jurkat T cells were assayed using the PCR-telomeric repeat amplification protocol (TRAP) (Roche, Laval, Québec, Canada).

[6] = tested on: Jurkat human leukemia T cells; experiment: Cell cycle stage in Jurkat cells (propidium iodide flow cytometry); type: cell-based; conditions: Jurkat, 24 h, 100 μg/ml
Outline: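 Exponentially growing Jurkat cells were exposed for 24 h to 2–45-base A/C/G/T oligonucleotides, or at 1×10^6 cells/ml to 6-base GT and AC strands, alone (heated 10 min, 65 °C) or hybridized 1:1. Detergent-, trypsin-, RNase- and spermine-treated nuclei were propidium iodide-stained and scored for G0/G1, early/mid/late S and G2/M by doublet-discriminating flow cytometry.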

[7] = tested on: OVCAR-3 human ovarian cancer cells; experiment: Inhibition of OVCAR-3 cell proliferation (MTT); type: cell-based; conditions: 100 μg/ml, 48 h, 5×10^5 cells/ml
Procedure: as §1, §2
OVCAR-3 ovarian cancer cells are a p53 mutated, p21/waf-1/Cip deleted, metastatic human solid tumor model. OVCAR-3 cells (5×10^5 cells/ml) were incubated with 2, 6 and 18 base GT sequences and with a 6 base AGT sequence (Table 11).

[8] = tested on: SK-OV-3 human ovarian cancer cells; experiment: Inhibition of SK-OV-3 cell proliferation (MTT); type: cell-based; conditions: 100 μg/ml, 48 h, 5×10^5 cells/ml
Procedure: as §1, §2
SK-OV-3 ovarian cancer cells are a p53 mutated, p21/waf-1/Cip deleted, p15^ink4B deleted, p16^Ink4 deleted, metastatichuman solid tumor model. SK-OV-3 cells (5×10^5 cells/ml) were incubated with 2, 6 and 18 base GT sequences (Table 12).

[9] = tested on: MCF-7 human breast cancer cells; experiment: Cell cycle stage in MCF-7 cells (propidium iodide flow cytometry); type: cell-based; conditions: MCF-7, 5×10^5 cells/ml, 24 h
Procedure: Cell cycle stage was determined using a […]™ PLUS DNA commercial kit (Becton Dickinson). Briefly, nuclei from cells were obtained by dissolving the cell membrane in a nonionic detergent, eliminating the cell cytoskeleton and nuclear proteins with trypsin, digesting the cellular RNA with RNase and stabilizing the nuclear chromatin with spermine. Propidium iodide was added to the cell nuclei and their fluorescence was analyzed in a flow cytometer equipped with electronic doublet discrimination capability (FACSCalibur, Becton Dickinson, San Jose, Calif.). Accumulation of cells in G0/G1, early S (SE), mid S (SM), late S (SL) or G2/M phases of the cell cycle was analyzed using MODFIT LT software (Verity Software House Inc., Topsham, Mass.).
Exponentially growing Jurkat human leukemia T cells (Table 28) and MCF-7 human breast cancer cells (5×10^5 cells/ml) (Table 29) were incubated for 24 h with 2, 6, 15, 18, 27 and 45 base sequences containing A, C, G and T. The cells were collected and centrifuged and cell cycle stage was determined.

Sequence | % INHIBITION of Jurkat human leukemia T cell proliferation [1] [%] | ↑ IL-6 (fold increase treated vs control cells) [2] [x] | ↑ IL-12 (fold increase treated vs control cells) [2] [x] | inhibition of IMC tumor growth (IMC tumor) [%] | % of cells in phase: G0/G1 [6] [%] | % of cells in phase: G2/M [6] [%] | % of cells in phase: SE [6] [%] | % of cells in phase: SL [6] [%] | % of cells in phase: SM [6] [%] | Arrest (cell cycle) [6] | also measured
AAAAGAAGTGGGGTGCCCCCACGATCACCAACGATGGTGTGTCCA (unmodified DNA) [BCG A-2, reference compound] | 19 | 3.9 | 1.6 | 88 |  |  |  |  |  |  | 
ACCGATGACGTCGCCGGTGACGGCAACACGACGGCCACCGTGCTG (unmodified DNA) [BCG A-4, reference compound] | 9 | 1.8 | 0.9 | 37 |  |  |  |  |  |  | 
GGGTGG [SEQ ID NO:25 phosphorothioate] | 0 |  | 0.0 |  | 34.9 | 24.7 | 14.8 | 10.6 | 15.0 | None | % INHIBITION of MCF-7 human breast cancer cell proliferation [3]: 12%; % INHIBITION of LNCaP human prostate cancer cell proliferation [4]: −8%; % INHIBITION of EL-4 murine T lymphoma cell proliferation [5]: −8%; anti-telomerase activity (telomerase): Neither GT SEQ ID NO:25-phosphorothioate nor GT SEQ ID NO:49-phosphodiester showed any anti-telomerase actvity; ↑ IL-12 (fold increase treated vs control cells) ([2]; listed as GsGsGsTsGsGs): 0 x
TTAGGG (phosphodiester backbone) [SEQ ID NO:49, reference compound] | 45 | 6.7 | 2.0 |  | 24.6 | 12.8 | 37.2 | 5.9 | 19.5 | Mid SM | % INHIBITION of OVCAR-3 human ovarian cancer cell proliferation [7]: 15%; % INHIBITION of SK-OV-3 human ovarian cancer cell proliferation [8]: 11%; anti-telomerase activity (telomerase; listed as SEQ ID NO:49-phosphodiester): Neither GT SEQ ID NO:25-phosphorothioate nor GT SEQ ID NO:49-phosphodiester showed any anti-telomerase actvity; % cells in phase: G0/G1 [9]: 20.0%; % cells in phase: G2/M [9]: 15.0%; % cells in phase: SE [9]: 18.6%; % cells in phase: SL [9]: 20.7%; % cells in phase: SM [9]: 25.7%; Arrest (cell cycle) [9]: Mid SM
